From paper PMC7914897, “Cytotoxic Potential of a-Azepano- and 3-Amino-3,4-SeCo-Triterpenoids” (International Journal of Molecular Sciences, 2021)

Columns and labels:
SF-268 (CNS cancer) = experiment: NCI-60 screen (SRB, 48 h); conditions: Homo sapiens
HOP-62 (NSC lung cancer) = experiment: NCI-60 screen (SRB, 48 h); conditions: Homo sapiens
CCRF-CEM (Leukemia) = experiment: NCI-60 screen (SRB, 48 h); conditions: Homo sapiens
786-0 (Renal cancer) = experiment: NCI-60 screen (SRB, 48 h)
HT29 (Colon cancer) = experiment: NCI-60 screen (SRB, 48 h); conditions: Homo sapiens
UACC-62 (Melanoma) = experiment: NCI-60 screen (SRB, 48 h); conditions: Homo sapiens
DU-145 (Prostate cancer) = experiment: NCI-60 screen (SRB, 48 h); conditions: Homo sapiens
Melanoma subpanel = experiment: NCI-60 screen, subpanel; conditions: Homo sapiens
T-47D (Breast cancer) = experiment: NCI-60 screen (SRB, 48 h); conditions: Homo sapiens, T47D
[1] = tested on: NIH 3T3 (non-malignant mouse fibroblasts); experiment: SRB cytotoxicity assay, 72 h; format: cell-based; conditions: NIH 3T3, 72 h, cut-off 30 µM
Method in brief: (§1)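 Cytotoxicity is measured colorimetrically with sulforhodamine B after 72 h exposure to compound concentrations of 0–30 µM, added 24 h after seeding of exponentially growing cells. Survival relative to untreated wells yields EC50.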

[2] = tested on: A549/ATCC (NSC lung cancer); experiment: NCI-60 screen (SRB, 48 h); conditions: Homo sapiens
SNB-75 (CNS cancer) = experiment: NCI-60 screen (SRB, 48 h); conditions: Homo sapiens
HCT-116 (Colon cancer) = experiment: NCI-60 screen (SRB, 48 h); conditions: Homo sapiens
SW-620 (Colon cancer) = experiment: NCI-60 screen (SRB, 48 h); conditions: Homo sapiens
ACHN (Renal cancer) = experiment: NCI-60 screen (SRB, 48 h); conditions: Homo sapiens
[3] = tested on: A2780 (ovarian carcinoma); experiment: SRB cytotoxicity assay, 72 h; format: cell-based, human; conditions: A2780, 72 h, cut-off 30 µM
Method in brief: as §1

[4] = tested on: FaDu (hypopharyngeal carcinoma); experiment: SRB cytotoxicity assay, 72 h; format: cell-based, human; conditions: cut-off 30 µM
Method in brief: as §1

MCF-7 (breast carcinoma) = experiment: SRB cytotoxicity assay, 72 h; format: cell-based, human; conditions: MCF-7, 72 h, cut-off 30 µM
Method in brief: as §1

[5] = tested on: A375 (malignant melanoma); experiment: SRB cytotoxicity assay, 72 h; format: cell-based, human; conditions: A375, 72 h, cut-off 30 µM
Method in brief: as §1

[6] = tested on: HT29 (colorectal carcinoma); experiment: SRB cytotoxicity assay, 72 h; format: cell-based, human; conditions: HT29, 72 h, cut-off 30 µM
Method in brief: as §1

Ovarian Cancer subpanel = experiment: NCI-60 screen, subpanel; conditions: Homo sapiens
A498 (Renal cancer) = experiment: NCI-60 screen (SRB, 48 h); conditions: Homo sapiens
TK-10 (Renal cancer) = experiment: NCI-60 screen (SRB, 48 h); conditions: Homo sapiens
[7] = tested on: NCI-H522 (NSC lung cancer); experiment: NCI-60 screen (SRB, 48 h); conditions: Homo sapiens

CC1(C)CC[C@]23CC[C@]4(C)[C@H](CC[C@@H]5[C@@]6(C)CCCNC(C)(C)[C@@H]6CC[C@]54C)[C@H]2[C@H]1OC3 [Compound 7, Azepanoallobetulin]
GI50 (SF-268 (CNS cancer); SF-268): 2040 nM | IC (TGI) (SF-268 (CNS cancer); SF-268, 48 h, read-out: TGI): 5.31 µM | CC50 (SF-268 (CNS cancer); SF-268, read-out: LC50): 31.5 µM | GI50 (HOP-62 (NSC lung cancer); HOP-62): 1910 nM | IC (TGI) (HOP-62 (NSC lung cancer); HOP-62, 48 h, read-out: TGI): 3.75 µM | CC50 (HOP-62 (NSC lung cancer); HOP-62, read-out: LC50): 7.34 µM | GI50 (CCRF-CEM (Leukemia)): 2320 nM | IC (TGI) (CCRF-CEM (Leukemia); 48 h, read-out: TGI): 6.73 µM | CC50 (CCRF-CEM (Leukemia); read-out: LC50): > 100 µM | Growth % of the Most Sensitive Cell Lines (786-0 (Renal cancer); 786-0, 1 dose 10 µM): −96.23% | GI50 (786-0 (Renal cancer); Homo sapiens, 786-0): 1660 nM | IC (TGI) (786-0 (Renal cancer); Homo sapiens, 786-0, 48 h, read-out: TGI): 3.21 µM | CC50 (786-0 (Renal cancer); Homo sapiens, 786-0, read-out: LC50): 6.18 µM | GI50 (HT29 (Colon cancer); HT-29): 1780 nM | IC (TGI) (HT29 (Colon cancer); HT-29, 48 h, read-out: TGI): 3.63 µM | CC50 (HT29 (Colon cancer); HT-29, read-out: LC50): 7.42 µM | GI50 (UACC-62 (Melanoma); UACC-62): 1790 nM | IC (TGI) (UACC-62 (Melanoma); UACC-62, 48 h, read-out: TGI): 3.21 µM | CC50 (UACC-62 (Melanoma); UACC-62, read-out: LC50): 5.77 µM | GI50 (DU-145 (Prostate cancer); DU-145): 1740 nM | IC (TGI) (DU-145 (Prostate cancer); DU-145, 48 h, read-out: TGI): 3.23 µM | CC50 (DU-145 (Prostate cancer); DU-145, read-out: LC50): 6 µM | IC (TGI) (Melanoma subpanel; 48 h, read-out: TGI MG_MID): 3.37 µM | GI50 (Melanoma subpanel; read-out: GI50 MG_MID): 1760 nM | CC50 (Melanoma subpanel; read-out: LC50 MG_MID): 6.52 µM | GI50 (T-47D (Breast cancer)): 1710 nM | IC (TGI) (T-47D (Breast cancer); 48 h, read-out: TGI): 3.69 µM | CC50 (T-47D (Breast cancer); read-out: LC50): 7.99 µM | EC50 [1]: n.s. | GI50 ([2]; A549): 1810 nM | IC (TGI) ([2]; A549, 48 h, read-out: TGI): 3.43 µM | CC50 ([2]; A549, read-out: LC50): 6.5 µM | GI50 (SNB-75 (CNS cancer); SNB-75): 1500 nM | IC (TGI) (SNB-75 (CNS cancer); SNB-75, 48 h, read-out: TGI): 2.94 µM | CC50 (SNB-75 (CNS cancer); SNB-75, read-out: LC50): 5.76 µM | GI50 (HCT-116 (Colon cancer); HCT-116): 1520 nM | activity at 10 µM (HCT-116 (Colon cancer); HCT-116, 48 h, read-out: Growth % of the Most Sensitive Cell Lines): -99.4% | IC (TGI) (HCT-116 (Colon cancer); HCT-116, 48 h, read-out: TGI): 2.88 µM | CC50 (HCT-116 (Colon cancer); HCT-116, read-out: LC50): 5.47 µM | GI50 (SW-620 (Colon cancer); SW-620): 1750 nM | IC (TGI) (SW-620 (Colon cancer); SW-620, 48 h, read-out: TGI): 3.49 µM | CC50 (SW-620 (Colon cancer); SW-620, read-out: LC50): 6.95 µM | GI50 (ACHN (Renal cancer)): 1710 nM | IC (TGI) (ACHN (Renal cancer); 48 h, read-out: TGI): 3.08 µM | CC50 (ACHN (Renal cancer); read-out: LC50): 5.55 µM | EC50 [3]: n.s. | EC50 [4]: n.s. | EC50 (MCF-7 (breast carcinoma)): n.s. | EC50 [5]: n.s. | EC50 [6]: n.s. | IC (TGI) (Ovarian Cancer subpanel; 48 h, read-out: TGI MG_MID): 3.99 µM | GI50 (Ovarian Cancer subpanel; read-out: GI50 MG_MID): 1860 nM | CC50 (Ovarian Cancer subpanel; read-out: LC50 MG_MID): 12.3 µM | GI50 (A498 (Renal cancer); A498): 1680 nM | IC (TGI) (A498 (Renal cancer); A498, 48 h, read-out: TGI): 3.67 µM | CC50 (A498 (Renal cancer); A498, read-out: LC50): 8 µM | GI50 (TK-10 (Renal cancer); TK-10): 1890 nM | IC (TGI) (TK-10 (Renal cancer); TK-10, 48 h, read-out: TGI): 3.61 µM | CC50 (TK-10 (Renal cancer); TK-10, read-out: LC50): 6.91 µM | GI50 ([7]; NCI-H522): 1900 nM | IC (TGI) ([7]; NCI-H522, 48 h, read-out: TGI): 3.77 µM | CC50 ([7]; NCI-H522, read-out: LC50): 7.49 µM
